Among the data in article PMC3805709 (Nature chemical biology, 2013) are Kd values, retold here.

For orientation: Kd means the free concentration of one partner at which half of the binding sites on the other are occupied at equilibrium, for simple one-to-one binding. High values mean weaker binding, low ones tighter binding.

Assay [1] has as its target CLC-ec1 (Escherichia coli, UniProt P37019). In words: biochemical.
Assay [2] addresses CLC-ec1 (Escherichia coli, UniProt P37019, E148A). The assay is described as follows: biochemical.

CLC-ec1 (Escherichia coli, UniProt P37019), sequence (P37019 whole entry): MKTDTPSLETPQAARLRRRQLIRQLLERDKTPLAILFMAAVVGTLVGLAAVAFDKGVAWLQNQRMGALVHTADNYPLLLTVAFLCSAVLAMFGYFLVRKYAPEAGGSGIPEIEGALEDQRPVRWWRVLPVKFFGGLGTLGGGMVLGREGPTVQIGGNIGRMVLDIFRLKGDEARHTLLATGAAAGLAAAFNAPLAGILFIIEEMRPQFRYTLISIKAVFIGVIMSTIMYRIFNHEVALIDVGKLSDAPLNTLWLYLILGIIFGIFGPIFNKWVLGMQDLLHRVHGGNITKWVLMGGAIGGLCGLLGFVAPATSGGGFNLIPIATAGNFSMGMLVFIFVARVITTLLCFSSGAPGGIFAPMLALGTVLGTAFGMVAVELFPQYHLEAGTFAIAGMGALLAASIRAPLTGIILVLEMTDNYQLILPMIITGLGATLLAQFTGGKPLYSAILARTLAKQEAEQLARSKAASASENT
CLC-ec1 (Escherichia coli, UniProt P37019, E148A), sequence (P37019 whole entry E148A): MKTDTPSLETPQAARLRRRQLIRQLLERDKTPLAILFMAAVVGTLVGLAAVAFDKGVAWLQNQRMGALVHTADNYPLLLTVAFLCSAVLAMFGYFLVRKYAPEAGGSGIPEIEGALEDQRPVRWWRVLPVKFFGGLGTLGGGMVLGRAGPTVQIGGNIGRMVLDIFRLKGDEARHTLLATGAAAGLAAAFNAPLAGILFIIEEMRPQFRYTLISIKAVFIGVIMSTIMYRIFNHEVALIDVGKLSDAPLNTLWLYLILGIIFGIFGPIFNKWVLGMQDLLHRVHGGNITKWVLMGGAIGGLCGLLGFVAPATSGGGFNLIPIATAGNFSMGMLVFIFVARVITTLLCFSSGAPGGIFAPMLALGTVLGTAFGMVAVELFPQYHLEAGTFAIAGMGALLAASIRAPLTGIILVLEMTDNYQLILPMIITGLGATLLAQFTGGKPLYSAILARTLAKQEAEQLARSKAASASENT

`Cl` [Cl^−] registered a Kd on CLC-ec1 [1] of 600 µM.

As for `F` [F^−], the equilibrium dissociation constant (Kd) was 180 µM at CLC-ec1 [2] and 1000 µM on CLC-ec1 [1].
